Measurements taken from US8889743B2 (priority 2007, dated 2014).

How the values were obtained:
[1] = system: Ebola virus GP pseudotype; assay type: cell-based
VSV GP pseudotype = assay type: cell-based, Vesicular stomatitis virus
[2] = system: Ebola virus pseudotyped VSV particles; assay type: cell-based
[3] = system: EBOV pseudotyped lentivirus; assay: microbe, parasite or virus in culture; assay type: cell-based, EBOV Zaire strain
[4] = system: retrovirus pseudotypes bearing Ebola virus env; assay type: cell-based
[5] = system: retrovirus pseudotypes bearing eMLV (Fr-MLV) env; assay type: cell-based, ecotropic murine leukemia virus
[6] = system: Venezuelan equine encephalitis virus (VEEV) pseudotyped VSV particles; assay type: cell-based
[7] = system: wild type Ebola virus, Zaire strain; assay type: cell-based; conditions: 7 days
[8] = system: live Ebola virus (Zaire strain); assay type: cell-based; conditions: 10 days

CCN(CC)CCCC(C)Nc1nc(C)cc(Nc2ccc3nc(C)cc(N)c3c2)n1 (racemic) [Rac1 inhibitor]
entry of Ebola virus GP pseudotype (luciferase activity) [1]: inhibits Ebola virus entry
entry of VSV GP pseudotype (luciferase activity) (VSV GP pseudotype): unaffected

COc1ccc([C@@H]2Sc3ccccc3N(CCN(C)C)C(=O)[C@@H]2OC(C)=O)cc1 [Diltiazem]
infection by virus-like particles bearing Ebola virus env (GFP-expressing cells) [2]: potent and specific blockers

COc1ccc(S(=O)(=O)Nc2ccccc2CN(C)C/C=C/c2ccc(Cl)cc2)cc1 [KN-92]
reduction in infection by the pseudotyped virus [3]: ~50%
infection of the VSV core EBOV pseudotyped virus [2]: not

COc1ccc(S(=O)(=O)N(CCO)c2ccccc2CN(C)C/C=C/c2ccc(Cl)cc2)cc1 [KN-93]
infection by retrovirus pseudotype bearing Ebola virus env (luciferase activity) [4]: strong effect
infection by retrovirus pseudotype bearing eMLV env (luciferase activity) [5]: blocking only the Ebola infection
infection of the VSV core EBOV pseudotyped virus [2]: significantly impacted
infection with Ebola virus pseudotyped VSV particles ([2]; 10 μM): specifically blocked infection

O=c1cc(N2CCOCC2)oc2c(-c3ccccc3)cccc12 [LY294002]
IC50 ([3]; Zaire ebolavirus, HEK293, read-out: IC50 value for infection of EBOV pseudotyped lentivirus): 6.5 ± 1.1 µM

COCCOC(=O)C1=C(C)NC(C)=C(C(=O)OC(C)C)C1c1cccc([N+](=O)[O-])c1 (stereo not shown) [Nimodopine]
Ebola virus-like particle infection/entry, calmodulin inhibitors and L-channel blocking drugs [2]: effective

CC(COc1ccccc1)N(CCCl)Cc1ccccc1 (stereo not shown) [Phenoxybenzamine]
Ebola virus-like particle infection/entry, calmodulin inhibitors and L-channel blocking drugs [2]: inhibited
Venezuelan equine encephalitis virus-like particle infection [6]: not

COc1ccc2cc1Oc1ccc(cc1)C[C@H]1c3cc(c(OC)cc3CCN1C)Oc1c(OC)c(OC)cc3c1[C@H](C2)N(C)CC3 [Tetrandine]
infection by virus-like particles bearing Ebola virus env (GFP-expressing cells) [2]: potent and specific blockers

CN1CCN(CCCN2c3ccccc3Sc3ccc(C(F)(F)F)cc32)CC1 [Trifluorperazine]
Ebola virus-like particle infection/entry, calmodulin inhibitors and L-channel blocking drugs [2]: inhibited
Venezuelan equine encephalitis virus-like particle infection [6]: not

N#CC(=C(/N)Sc1ccccc1N)/C(C#N)=C(\N)Sc1ccccc1N [U0126]
entry of Ebola virus GP pseudotype (luciferase activity) [1]: not

COc1ccc(CCN(C)CCCC(C#N)(c2ccc(OC)c(OC)c2)C(C)C)cc1OC (stereo not shown) [Verapamil]
Ebola virus-like particle infection/entry, calmodulin inhibitors and L-channel blocking drugs [2]: highly effective
Ebola virus induced cytopathic effect [7]: reduced or significantly prevented

NCCCCCCNS(=O)(=O)c1cccc2c(Cl)cccc12 [W7]
Ebola virus-like particle infection/entry, calmodulin inhibitors and L-channel blocking drugs [2]: inhibited
Venezuelan equine encephalitis virus-like particle infection [6]: not

Cl.N [ammonium chloride]
entry of Ebola virus GP pseudotype (luciferase activity), assay validation [1]: sensitive

CO/C1=C\C(C)=C\[C@@H](C)[C@@H](O)[C@@H](C)C/C(C)=C/C=C/[C@H](OC)[C@@H]([C@@H](C)[C@@H](O)[C@H](C)[C@@]2(O)C[C@@H](O)[C@H](C)[C@@H](C(C)C)O2)OC1=O [bafilomycin A1]
entry of Ebola virus GP pseudotype (luciferase activity), assay validation [1]: sensitive

Methoxyverapamil
Ebola virus-like particle infection/entry, calmodulin inhibitors and L-channel blocking drugs [2]: highly effective
infection of live Ebola Zaire virus (plaque numbers normalized to DMSO) [8]: inhibition of infection
